Experimental data as given in patent publication US9827190B2, “Intradermal delivery of immunological compositions comprising toll-like receptor 7 agonists” (GLAXOSMITHKLINE BIOLOGICALS SA, priority 2013, dated 2017).

System: X181 H1N1 Cal, X187 H3N2 Perth and B/Brisbane
Assay type: in vivo, Balb/c mice
Details: adjuvant dose 100 μg, 20 μl

Cc1ccc2c(c1)nc(N)c1ncc(CCc3ccc(OCCOCCOCCC(F)(F)P(=O)(O)O)cc3C)cc12 [T1b]
immune response compared to both intradermal or intramuscular immunization using antigen alone: significantly improved immune response
